Assays:
[1] = tested on: MYOD1 locus in HEK293T cells; assay: ChIP-qPCR of FLAG-ABI-P300 and H3K27Ac at the MYOD1 locus; type: cell-based, human; conditions: MYOD1 sgRNAs; ABA treatment for 48 hours
[2] = tested on: GRM2 locus in HEK293T cells; assay: ChIP-qPCR of FLAG-ABI-P300 and H3K27Ac at the GRM2 locus; type: cell-based, human
Description: To determine if the new method can be used to modify H3K27Ac at other gene loci, sgRNAs were designed that target the promoter region of other genes with low expression levels in HEK293T cells, including GRM2, HBA and MYOD1 (Table 1).
Human embryonic kidney cell HEK293T (American Type Culture Collection, Manassas, Va.) was cultured in Dulbecco's modified Eagle's medium (DMEM) (Gibco) with 10% FBS (Atlanta Biologicals), 1× GlutaMax (Gibco, Thermo Fisher Scientific, Inc., Waltham, Mass.), and 1× penicillin/streptomycin (Pen/Strep; Gibco, Thermo Fisher Scientific, Inc., Waltham, Mass.). Cells (100,000/ml) were plated in 24-well or 10-cm cell culture plate the day before transfection. For each well of 24-well plate transfection, 500 ng of dCas9-PYL-HA, 420 ng of FLAG-ABI-P300, and a total amount of 200-ng mix of gRNAs, with a 50-ng per each gRNA, were mixed with 50×(v/w) Opti-MEM (Gibco, Thermo Fisher Scientific, Inc., Waltham, Mass.), then incubate with the same volume of 3 μg PEI-Opti-MEM solution for 20 minutes at room temperature. Then, 100 μL of PEI-combined plasmids were added to every single well of 24-well plate and cultured for 24 hours before experiments were performed. For a 10 cm plate, 1 mL of PEI-combined plasmids were needed. After six hours transfection, cells were washed and incubated for another 1-72 hours before experiments were performed.
ChIP protocol was optimized from the method in Molecular Cloning, Fourth edition (Cold Spring Harbor Laboratory Press, 2012). In brief, cells cultured in a 10-cm plate were fixed with 1 mL of cross-linking buffer (0.1 M NaCl, 1 mM EDTA, 0.5 mM EGTA, 50 mM HEPES and 11% formaldehyde), and shaken in room temperature for 15 minutes. Then 1.1 mL of 1.25 M glycine was added to the solution to stop crosslinking. After washing three times in ice cold PBS, cells were scraped and suspended in 10 mL of lysis buffer (50 mM HEPES, 140 mM NaCl, 1 mM EDTA, 10% Glycerol, 0.5% NP40, 0.25% Triton X-100), and rocked at 4° C. for 10 minutes. […]

[3] = GRM2 sgRNAs, ABA treatment for 48 hours

## CC1=CC(=O)CC(C)(C)[C@@]1(O)/C=C/C(C)=C\C(=O)O [ABA, abscisic acid]
[1]
  enrichment of FLAG-ABI-P300 at the MYOD1 locus: causes the enrichment
  enrichment of H3K27Ac at the MYOD1 locus: causes the enrichment
[2]; ABA 4-24 hours, then washing and 24 hours without ABA
  induction and reversibility of H3K27Ac enrichment at the GRM2 locus: rapidly induced upon ABA addition and reversed after ABA removal
[2]; [3]
  enrichment of FLAG-ABI-P300 at the GRM2 locus: causes the enrichment
  enrichment of H3K27Ac at the GRM2 locus: causes the enrichment

From US20190256827A1, “EPIGENOME EDITING SYSTEMS AND METHODS” (STC.UNM, priority 2017, published 2019)
